Measurements: ChEMBL document CHEMBL3739261, “Synthesis and antibacterial activity evaluation of C-5 side chain modified analogues of FYL-66, a potential agent against methicillin-resistant Staphylococcus aureus” (Medchemcomm, 2015)
In brackets after ≈: the same amount, converted by molar mass. Activity calls are given as the source filed them. The rule behind the calls is not given here.

Key:
[1] = system: Pseudomonas aeruginosa; test: Antibacterial activity against Pseudomonas aeruginosa ATCC 27853 incubated for 18 hrs by broth microdilution method; assay type: functional; settings: ATCC 27853, 18 h
[2] = system: Staphylococcus aureus; test: Antibacterial activity against methicillin-resistant Staphylococcus aureus ATCC 33591 in neutropenic Kunming mouse systemic infection model assessed as survival rate at 20 mg/kg, po administered 1 hr post inoculation measured on day 3; assay type: functional
[3] = system: Escherichia coli; test: Antibacterial activity against Escherichia coli ATCC 25922 incubated for 18 hrs by broth microdilution method; assay type: functional; settings: ATCC 25922, 18 h
[4] = Cytotoxicity against HEK293A cells after 48 hrs by MTT assay; assay type: cell-based; settings: Homo sapiens, HEK293-A
[5] = system: Staphylococcus aureus; test: Antibacterial activity against methicillin-resistant Staphylococcus aureus ATCC 33591 in neutropenic Kunming mouse systemic infection model assessed as survival rate at 20 mg/kg, po administered 1 hr post inoculation measured on day 1 to 2; assay type: functional; settings: ATCC 33591, po
[6] = Cytotoxicity against human L02 cells after 48 hrs by MTT assay; assay type: cell-based; settings: L02, 48 h
[7] = system: Staphylococcus aureus; test: Antibacterial activity against methicillin-susceptible Staphylococcus aureus CMCC 2603 incubated for 18 hrs by broth microdilution method; assay type: functional; settings: CMCC 2603, 18 h
[8] = Octanol/water partition coefficient, log P of the compound by HPLC assay; assay type: physicochemical
[9] = Solubility of compound in distilled water after 24 hrs by HPLC analysis; assay type: physicochemical
[10] = system: Staphylococcus aureus; test: Antibacterial activity against methicillin-resistant Staphylococcus aureus ATCC 33591 incubated for 18 hrs by broth microdilution method; assay type: functional; settings: ATCC 33591, 18 h
[11] = system: Staphylococcus aureus; test: Antibacterial activity against methicillin-susceptible Staphylococcus aureus ATCC 6538 incubated for 18 hrs by broth microdilution method; assay type: functional; settings: ATCC 6538, 18 h
[12] = system: Staphylococcus aureus; test: Antibacterial activity against methicillin-resistant Staphylococcus aureus ATCC 43300 incubated for 18 hrs by broth microdilution method; assay type: functional; settings: ATCC 43300, 18 h
[13] = system: Staphylococcus aureus; test: Antibacterial activity against methicillin-susceptible Staphylococcus aureus ATCC 29213 incubated for 18 hrs by broth microdilution method; assay type: functional; settings: ATCC 29213, 18 h
[14] = system: Staphylococcus aureus; test: Antibacterial activity against methicillin-susceptible Staphylococcus aureus ATCC 25923 incubated for 18 hrs by broth microdilution method; assay type: functional; settings: ATCC 25923, 18 h
[15] = system: Streptococcus pneumoniae; test: Antibacterial activity against Penicillin-resistant Streptococcus pneumoniae; assay type: functional
[16] = system: Enterococcus; test: Antibacterial activity against Enterococcus; assay type: functional
[17] = system: Enterococcus; test: Antibacterial activity against vancomycin-resistant Enterococcus; assay type: functional
[18] = system: Staphylococcus aureus; test: Antibacterial activity against methicillin-resistant Staphylococcus aureus; assay type: functional

| Structure (SMILES) | MIC [1] [µg/mL] | Activity [2] | MIC [3] [µg/mL] | IC50 [4] [µg/mL] | survival at 20 mg/kg [5] [%] | IC50 [6] [µg/mL] | MIC [7] [µg/mL] | logP [8] | solubility at 24 h [9] [µM] | MIC [10] [µg/mL] | MIC [11] [µg/mL] | MIC [12] [µg/mL] | MIC [13] [µg/mL] | MIC [14] [µg/mL] | MIC [15] [µg/mL] | MIC [16] [µg/mL] | MIC [17] [µg/mL] | MIC [18] [µg/mL] |
| --- | --- | --- | --- | --- | --- | --- | --- | --- | --- | --- | --- | --- | --- | --- | --- | --- | --- | --- |
| CC(=O)NC[C@H]1CN(c2ccc(N3CCOCC3)c(F)c2)C(=O)O1 [LINEZOLID] | > 32 | Active | > 32 | 215 (≈ 637 µM) | 30 | 213 (≈ 631 µM) |  |  |  |  |  |  |  |  |  |  |  |  |
| O=C1O[C@@H](CSc2cccs2)CN1c1ccc(-n2cc(-c3ccccn3)cn2)c(F)c1 | > 32 |  | > 32 | > 400 |  | > 400 | > 32 | 4.29 | 8.5 (≈ 3.85 µg/mL) | > 32 | > 32 | > 32 | > 32 | > 32 |  |  |  |  |
| O=C1CNC(=O)N1C[C@H]1CN(c2ccc(-n3cc(-c4ccccn4)cn3)c(F)c2)C(=O)O1 | > 32 |  | > 32 | > 400 |  | > 400 | > 32 | 1.25 | 1630 (≈ 713 µg/mL) | > 32 | > 32 | > 32 | > 32 | > 32 |  |  |  |  |
| CC(=O)OC[C@H]1CN(c2ccc(-n3cc(-c4ccccn4)cn3)c(F)c2)C(=O)O1 | > 32 |  | > 32 | > 400 |  | > 400 | > 32 | 2.09 | 373 (≈ 148 µg/mL) | > 32 | > 32 | > 32 | > 32 | > 32 |  |  |  |  |
| CC(=O)NC[C@H]1CN(c2ccc(-n3cc(-c4ccccn4)cn3)c(F)c2)C(=O)O1.Cl |  |  |  |  |  |  |  |  |  |  |  |  |  |  | 0.25 | 0.25 | 0.25 | 0.25 |
| CN(C)S(=O)(=O)NC[C@H]1CN(c2ccc(-n3cc(-c4ccccn4)cn3)c(F)c2)C(=O)O1 | > 32 |  | > 32 | 249 (≈ 541 µM) |  | 158 (≈ 343 µM) | > 32 | 1.38 | 472 (≈ 217 µg/mL) | > 32 | > 32 | > 32 | > 32 | > 32 |  |  |  |  |
| O=C1CCC(=O)N1C[C@H]1CN(c2ccc(-n3cc(-c4ccccn4)cn3)c(F)c2)C(=O)O1 | > 32 |  | > 32 | > 400 |  | > 400 | > 32 | 1.58 | 45.3 (≈ 19.7 µg/mL) | > 32 | > 32 | > 32 | > 32 | > 32 |  |  |  |  |
| O=C1OC(Cn2ccnc2)CN1c1ccc(-n2cc(-c3ccccn3)cn2)c(F)c1 (single isomer, unassigned) | > 32 |  | > 32 | > 400 |  | 350 (≈ 865 µM) | > 32 | 1.73 | 12.3 (≈ 4.97 µg/mL) | > 32 | > 32 | > 32 | > 32 | > 32 |  |  |  |  |
| COC(=O)CC1CCN(C[C@H]2CN(c3ccc(-n4cc(-c5ccccn5)cn4)c(F)c3)C(=O)O2)CC1 | > 32 |  | > 32 | 224 (≈ 454 µM) |  | > 400 | > 32 | 1.78 | 92.1 (≈ 45.5 µg/mL) | > 32 | > 32 | > 32 | > 32 | > 32 |  |  |  |  |
| CONC(=O)[C@H]1CN(c2ccc(-n3cc(-c4ccccn4)cn3)c(F)c2)C(=O)O1 | > 32 |  | > 32 | > 400 |  | > 400 | 16 (≈ 40.3 µM) | ≥ 1.58 | 78.1 (≈ 31 µg/mL) | 16 (≈ 40.3 µM) | 16 (≈ 40.3 µM) | 16 (≈ 40.3 µM) | 16 (≈ 40.3 µM) | 16 (≈ 40.3 µM) |  |  |  |  |
| CCNC(=O)NC[C@H]1CN(c2ccc(-n3cc(-c4ccccn4)cn3)c(F)c2)C(=O)O1 | > 32 |  | > 32 | 29 (≈ 68.3 µM) |  | > 400 | 8 (≈ 18.8 µM) | 2.45 | 222 (≈ 94.1 µg/mL) | 8 (≈ 18.8 µM) | 8 (≈ 18.8 µM) | 8 (≈ 18.8 µM) | 8 (≈ 18.8 µM) | 8 (≈ 18.8 µM) |  |  |  |  |
| O=C1O[C@@H](CN2CCC(O)CC2)CN1c1ccc(-n2cc(-c3ccccn3)cn2)c(F)c1 | > 32 |  | > 32 | > 400 |  | > 400 | > 32 | 1.63 | 45.9 (≈ 20.1 µg/mL) | > 32 | > 32 | > 32 | > 32 | > 32 |  |  |  |  |
| O=C1O[C@@H](CN2CCC(c3ccc(F)cc3)CC2)CN1c1ccc(-n2cc(-c3ccccn3)cn2)c(F)c1 | > 32 |  | > 32 | > 400 |  | > 400 | > 32 | 5.78 | ≤ 19.4 | > 32 | > 32 | > 32 | > 32 | > 32 |  |  |  |  |
| CC(=O)NC[C@H]1CN(c2ccc(-n3cc(-c4ccccn4)cn3)c(F)c2)C(=O)O1 |  | Active |  |  |  |  |  |  |  |  |  |  |  |  |  |  |  |  |
| CS(=O)(=O)NC[C@H]1CN(c2ccc(-n3cc(-c4ccccn4)cn3)c(F)c2)C(=O)O1 | > 32 |  | > 32 | 314 (≈ 728 µM) |  | > 400 | > 64 | 1.38 | 2.3 (≈ 0.992 µg/mL) | > 64 | > 64 | > 64 | > 64 | > 64 |  |  |  |  |
| O=C1CSC(=O)N1C[C@H]1CN(c2ccc(-n3cc(-c4ccccn4)cn3)c(F)c2)C(=O)O1 | > 32 |  | > 32 | 283 (≈ 624 µM) |  | > 400 | > 32 | 2.18 | 26.9 (≈ 12.2 µg/mL) | > 32 | > 32 | > 32 | > 32 | > 32 |  |  |  |  |
| CN(CCC#N)C[C@H]1CN(c2ccc(-n3cc(-c4ccccn4)cn3)c(F)c2)C(=O)O1 | > 32 |  | > 32 | > 400 |  | > 400 | > 32 | 1.9 | 64.5 (≈ 27.1 µg/mL) | > 32 | > 32 | > 32 | > 32 | > 32 |  |  |  |  |
